The IC50 is the point on the concentration scale where inhibition reaches its midpoint.

The experiment addresses p97 ATPase WT (Homo sapiens, UniProt P55072). As to the kind of experiment: ADPGlo biochemical assay of p97 ATPase inhibition. Conditions: for effect of structural change on activity/potency (in words): p97 inhibition, versus indole NH / amide analogs. A general note: ADP-Glo first removes unused ATP, then detects ADP through luciferase.

The structures appear in SMILES notation. Read-outs that look alike come from different tables or passages of the source.

Sequence of p97 ATPase WT (P55072 whole entry): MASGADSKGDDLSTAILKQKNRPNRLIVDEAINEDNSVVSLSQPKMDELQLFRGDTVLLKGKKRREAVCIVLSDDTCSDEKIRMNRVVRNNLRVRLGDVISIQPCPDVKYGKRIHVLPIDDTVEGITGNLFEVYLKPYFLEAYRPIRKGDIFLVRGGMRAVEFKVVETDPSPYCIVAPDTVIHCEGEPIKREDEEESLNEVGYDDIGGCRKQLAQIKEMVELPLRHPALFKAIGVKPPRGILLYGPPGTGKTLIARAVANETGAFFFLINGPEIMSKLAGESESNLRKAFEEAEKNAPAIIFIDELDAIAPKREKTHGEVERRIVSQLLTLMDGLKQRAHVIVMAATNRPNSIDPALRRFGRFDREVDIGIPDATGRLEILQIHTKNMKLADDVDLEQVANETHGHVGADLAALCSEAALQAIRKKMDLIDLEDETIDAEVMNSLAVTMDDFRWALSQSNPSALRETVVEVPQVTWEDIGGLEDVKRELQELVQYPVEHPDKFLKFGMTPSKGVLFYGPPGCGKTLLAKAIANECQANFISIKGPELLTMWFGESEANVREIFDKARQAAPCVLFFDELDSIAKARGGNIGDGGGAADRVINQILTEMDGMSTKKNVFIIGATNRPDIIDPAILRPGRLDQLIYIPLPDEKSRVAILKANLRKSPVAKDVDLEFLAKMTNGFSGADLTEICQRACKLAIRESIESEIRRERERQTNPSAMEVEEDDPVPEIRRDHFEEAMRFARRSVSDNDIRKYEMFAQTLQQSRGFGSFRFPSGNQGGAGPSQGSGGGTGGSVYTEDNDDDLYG

For `CC(C)N1CCN(CCNC2CCN(c3cccc(-c4cc5ccccc5n4C)c3)CC2)CC1` [UPCDC30201, N-(2-(4-Isopropylpiperazin-1-yl)ethyl)-1-(3-(1-methyl-1H-indol-2-yl)phenyl)piperidin-4-amine], the IC50 was over 50000 nM and the “effect of structural change on activity/potency (in words)” value is “ablates”. As to `CC(C)N1CCN(CCNC2CCN(c3ccc4c(c3)-c3[nH]c5ccccc5c3CC4)CC2)CC1` [UPCDC30206, 1-(6,11-Dihydro-5H-benzo[a]carbazol-2-yl)-N-(2-(4-isopropylpiperazin-1-yl)ethyl)piperidin-4-amine], 390 nM corresponded to half-maximal inhibition (IC50). Take `CC(C)N1CCN(CCNC2CCN(c3cccc(-c4ccc5ccccc5c4)c3)CC2)CC1` [UPCDC30222, N-(2-(4-Isopropylpiperazin-1-yl)ethyl)-1-(3-(naphthalen-2-yl)phenyl)piperidin-4-amine]: the IC50 was 5200 nM and the “effect of structural change on activity/potency (in words)” value is “greatly diminishes”.

As for `CC(C)N1CCN(CCNC2CCN(c3cccc(-c4cc5cc(F)ccc5[nH]4)c3)CC2)CC1` [UPCDC30245], the IC50 (read-out: ADPGlo IC50, 20 nM p97 ATPase WT, 100 μM ATP, repeated multiple times) stood at 55 nM. `CC(C)N1CCN(CCNC2CCN(c3cccc(-c4nc5ccccc5[nH]4)c3)CC2)CC1` [UPCDC30250, 1-(3-(1H-Benzo[d]imidazol-2-yl)phenyl)-N-(2-(4-isopropylpiperazin-1-yl)ethyl)piperidin-4-amine] displayed an IC50 of 38500 nM. Further, the “reduction of binding affinity” value (benzimidazole versus indole) is recorded as > 2 orders of magnitude. The molecule `CC(C)N1CCN(CCNC2CCN(c3cccc(-c4cc5cc(C(N)=O)ccc5[nH]4)c3)CC2)CC1` [UPCDC30310, 2-(3-(4-((2-(4-Isopropylpiperazin-1-yl)ethyl)amino)piperidin-1-yl)phenyl)-1H-indole-5-carboxamide] yielded an IC50 of 100 nM. Molecule `CC(C)N1CCN(CCNC2CCN(c3cccc(-c4cc5cc(Cl)ccc5[nH]4)c3)CC2)CC1` [UPCDC30317, 1-(3-(5-Chloro-1H-indol-2-yl)phenyl)-N-(2-(4-isopropylpiperazin-1-yl)ethyl)piperidin-4-amine] registered an IC50 of 190 nM. For the molecule `COC(=O)c1ccc2[nH]c(-c3cccc(N4CCC(NCCN5CCN(C(C)C)CC5)CC4)c3)cc2c1` [UPCDC30341, Methyl 2-(3-(4-((2-(4-isopropylpiperazin-1-yl)ethyl)amino)piperidin-1-yl)phenyl)-1H-indole-5-carboxylate], the IC50 amounted to 130 nM. Same read-out and setting: as for `CC(C)N1CCN(CCNC2CCN(c3cccc(-c4cc5cnccc5[nH]4)c3)CC2)CC1` [UPCDC30345, 1-(3-(1H-Pyrrolo[3,2-c]pyridin-2-yl)phenyl)-N-(2-(4-isopropylpiperazin-1-yl)ethyl)piperidin-4-amine], the figure is 4000 nM; as for `Cc1ccc(N2CCC(NCCN3CCN(C(C)C)CC3)CC2)cc1-c1cc2cc(F)ccc2[nH]1` [UPCDC30346, 1-(3-(5-Fluoro-1H-indol-2-yl)-4-methylphenyl)-N-(2-(4-isopropylpiperazin-1-yl)ethyl)piperidin-4-amine], 50 nM. As for `Cc1ccc(N2CCC(NCCN3CCN(C(C)C)CC3)CC2)cc1-c1cc2cc(C#N)ccc2[nH]1` [UPCDC30361, 2-(5-(4-((2-(4-Isopropylpiperazin-1-yl)ethyl)amino)piperidin-1-yl)-2-methylphenyl)-1H-indole-5-carbonitrile], half-maximal inhibition (IC50) was put at 87 nM. In turn, `CNC(=O)c1ccc2[nH]c(-c3cccc(N4CCC(NCCN5CCN(C(C)C)CC5)CC4)c3)cc2c1` [UPCDC30367, 2-(3-(4-((2-(4-Isopropylpiperazin-1-yl)ethyl)amino)piperidin-1-yl)phenyl)-N-methyl-1H-indole-5-carboxamide] showed an IC50 of 450 nM. As for `CC(C)N1CCN(CCNC2CCN(c3cccc(-c4cc5cc(C(=O)N(C)C)ccc5[nH]4)c3)CC2)CC1` [UPCDC30368, 2-(3-(4-((2-(4-Isopropylpiperazin-1-yl)ethyl)amino)piperidin-1-yl)phenyl)-N,N-dimethyl-1H-indole-5-carboxamide], the “effect of structural change on activity/potency (in words)” value is given as “near loss of all potency”. Turning to `CC(C)N1CCN(CCNC2CCN(c3cccc(-c4cc5cc(F)cnc5[nH]4)c3)CC2)CC1` [UPCDC30381, 1-(3-(5-Fluoro-1H-pyrrolo[2,3-b]pyridin-2-yl)phenyl)-N-(2-(4-isopropylpiperazin-1-yl)ethyl)piperidin-4-amine], the IC50 amounted to 4740 nM.

Source of the values: article PMC5472064 (Organic & biomolecular chemistry, 2017).
